EC50 and IC50 data for nine compounds are collected here from US7101906B2, “2,3,4-substituted cyclopentanones as therapeutic agents” (Allergan, Inc., priority 2004, dated 2006).

The structures appear in SMILES notation.

Experiment [1] concerns the target T1, hEP4/Gqs5 (Homo sapiens, UniProt P35408).
T1 construct: expressed in transfected cells
Kind of experiment: FLIPR calcium signal, hEP4/Gqs5. As to conditions: HEK-293(EBNA) cells, read-out: Functional EC50 (nM) HEP4. The experiment is classed as cell-based. On the procedure:
(§1) HEK-293(EBNA) cells, stably expressing one type or subtype of recombinant human prostaglandin receptors (prostaglandin receptors expressed: hDP/Gqs5; hEP1; hEP2/Gqs5; hEP3A/Gqi5; hEP4/Gqs5; hFP; hIP; hTP), were cultured in 100 mm culture dishes in high-glucose DMEM medium containing 10% fetal bovine serum, 2 mM 1-glutamine, 250 μg/ml geneticin (G418) and 200 μg/ml hygromycin B as selection markers, and 100 units/ml penicillin G, 100 μg/ml streptomycin and 0.25 μg/ml amphotericin B.
(§2) Cells were seeded at a density of 5×10^4 cells per well in Biocoat® Poly-D-lysine-coated black-wall, clear-bottom 96-well plates (Becton-Dickinson) and allowed to attach overnight in an incubator at 37° C. Cells were then washed two times with HBSS-HEPES buffer (Hanks Balanced Salt Solution without bicarbonate and phenol red, 20 mM HEPES, pH 7.4) using a Denley Cellwash plate washer (Labsystems). After 45 minutes of dye-loading in the dark, using the calcium-sensitive dye Fluo-4 AM at a final concentration of 2 μM, plates were washed four times with HBSS-HEPES buffer to remove excess dye leaving 100 μl in each well. Plates were re-equilibrated to 37° C. for a few minutes.
(§3) Cells were excited with an Argon laser at 488 nm, and emission was measured through a 510–570 nm bandwidth emission filter (FLIPR™, Molecular Devices, Sunnyvale, Calif.). Drug solution was added in a 50 μl volume to each well to give the desired final concentration. The peak increase in fluorescence intensity was recorded for each well. On each plate, four wells each served as negative (HBSS-HEPES buffer) and positive controls (standard agonists: BW245C (hDP); PGE2 (hEP1; hEP2/Gqs5; hEP3A/Gqi5; hEP4/Gqs5); PGF2α (hFP); carbacyclin (hIP); U-46619 (hTP), depending on receptor). The peak fluorescence change in each drug-containing well was then expressed relative to the controls.
(§4) Compounds were tested in a high-throughput (HTS) or concentration-response (CoRe) format. In the HTS format, forty-four compounds per plate were examined in duplicates at a concentration of 10^−5 M. To generate concentration-response curves, four compounds per plate were tested in duplicates in a concentration range between 10^−5 and 10^−11 M. The duplicate values were averaged. In either, HTS or CoRe format each compound was tested on at least 3 separate plates using cells from different passages to give an n≧3.

In experiment [2] the target is T2, HEP4 (Homo sapiens, UniProt P35408).
T2 construct: expressed in transfected cells; membrane fraction
T2 sequence (P35408 whole entry): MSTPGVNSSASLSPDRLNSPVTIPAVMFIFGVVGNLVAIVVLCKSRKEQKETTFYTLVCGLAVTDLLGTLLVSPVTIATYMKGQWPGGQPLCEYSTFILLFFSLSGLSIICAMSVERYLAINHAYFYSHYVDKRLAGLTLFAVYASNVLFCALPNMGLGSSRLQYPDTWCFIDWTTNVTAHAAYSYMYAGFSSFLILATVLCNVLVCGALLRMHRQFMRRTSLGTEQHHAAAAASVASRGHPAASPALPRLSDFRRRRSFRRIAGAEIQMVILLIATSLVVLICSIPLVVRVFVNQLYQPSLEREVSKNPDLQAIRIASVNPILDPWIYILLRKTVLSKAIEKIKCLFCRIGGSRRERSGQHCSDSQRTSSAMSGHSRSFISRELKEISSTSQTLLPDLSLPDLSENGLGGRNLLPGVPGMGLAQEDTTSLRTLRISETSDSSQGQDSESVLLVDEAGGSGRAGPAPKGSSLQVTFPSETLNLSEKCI
Kind of experiment: Radioligand binding, EP4 receptor. As to conditions: competition vs [3H]PGE2 5 nM, HEK-293 cell membranes. The method, then: (§5) HEK-293 cells stably expressing the human or feline FP receptor, or EP1, EP2, or EP4 receptors were washed with TME buffer, scraped from the bottom of the flasks, and homogenized for 30 sec using a Brinkman PT 10/35 polytron. TME buffer was added to achieve a final 40 ml volume in the centrifuge tubes (the composition of TME is 100 mM TRIS base, 20 mM MgCl2, […]; 10N HCl is added to achieve a pH of 7.4).
(§6) The cell homogenate was centrifuged at 19000 r.p.m. for 20 min at 4° C. using a Beckman Ti-60 rotor. The resultant pellet was resuspended in TME buffer to give a final 1 mg/ml protein concentration, as determined by Biorad assay. Radioligand binding competition assays vs. [^3H-]17-phenyl PGF2α (5 nM) were performed in a 100 μl volume for 60 min. Binding reactions were started by adding plasma membrane fraction. The reaction was terminated by the addition of 4 ml ice-cold TRIS-HCl buffer and rapid filtration through glass fiber GF/B filters using a Brandel cell harvester. The filters were washed 3 times with ice-cold buffer and oven dried for one hour. Non-specific binding was determined with 10 uM unlabeled 17-phenyl PGF2α.
[^3H-] PGE2 (5 nM; specific activity 180 Ci mmol) was used as the radioligand for EP receptors. Binding studies employing EP1, EP2, EP3, EP4 were performed in duplicate in at least three separate experiments. A 200 μl assay volume was used. Incubations were for 60 min at 25° C. and were terminated by the addition of 4 ml of ice-cold 50 mM TRIS-HCl, followed by rapid filtration through Whatman GF/B filters and three additional 4 ml washes in a cell harvester (Brandel). Non-specific binding determined with 10^−5M of unlabeled PGE2.

Experiment [3] deals with T3, hTP (Homo sapiens, UniProt P21731).
T3 construct: expressed in transfected cells
T3 sequence (P21731 1-343): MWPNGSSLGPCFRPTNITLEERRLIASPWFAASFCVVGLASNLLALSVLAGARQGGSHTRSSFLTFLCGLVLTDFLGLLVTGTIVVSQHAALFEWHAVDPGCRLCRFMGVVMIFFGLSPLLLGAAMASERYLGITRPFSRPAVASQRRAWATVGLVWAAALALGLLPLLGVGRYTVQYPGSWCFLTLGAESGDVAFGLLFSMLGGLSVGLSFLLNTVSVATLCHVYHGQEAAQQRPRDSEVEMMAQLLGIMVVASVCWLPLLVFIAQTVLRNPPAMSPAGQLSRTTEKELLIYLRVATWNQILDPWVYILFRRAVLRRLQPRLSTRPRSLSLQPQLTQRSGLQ
Description: FLIPR calcium signal, hTP. The experiment is classed as cell-based. As to conditions: HEK-293(EBNA) cells, read-out: Functional EC50 (nM) HTP. The method, then: as §1, §2, §3, §4

The target of experiment [4] is T4, hEP1 (Homo sapiens, UniProt P34995).
T4 construct: expressed in transfected cells
T4 sequence (P34995 1-402): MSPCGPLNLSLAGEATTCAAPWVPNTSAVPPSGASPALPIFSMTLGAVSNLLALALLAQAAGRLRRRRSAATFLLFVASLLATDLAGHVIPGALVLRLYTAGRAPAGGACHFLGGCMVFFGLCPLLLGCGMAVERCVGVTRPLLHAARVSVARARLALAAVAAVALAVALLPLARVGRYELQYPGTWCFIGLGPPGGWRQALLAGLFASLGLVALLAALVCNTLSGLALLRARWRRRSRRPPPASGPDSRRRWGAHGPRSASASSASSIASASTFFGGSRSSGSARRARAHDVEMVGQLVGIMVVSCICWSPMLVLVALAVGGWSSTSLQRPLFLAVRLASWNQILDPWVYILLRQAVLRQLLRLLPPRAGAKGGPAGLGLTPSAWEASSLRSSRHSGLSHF
Kind of experiment: FLIPR calcium signal, hEP1. It counts as cell-based. To be noted: HEK-293(EBNA) cells, read-out: Functional EC50 (nM) HEP1. The method, then: as §1, §2, §3, §4

The target of experiment [5] is T5, HEP3D (Homo sapiens, UniProt P43115).
T5 sequence (P43115 1-374 isoform P43115-4): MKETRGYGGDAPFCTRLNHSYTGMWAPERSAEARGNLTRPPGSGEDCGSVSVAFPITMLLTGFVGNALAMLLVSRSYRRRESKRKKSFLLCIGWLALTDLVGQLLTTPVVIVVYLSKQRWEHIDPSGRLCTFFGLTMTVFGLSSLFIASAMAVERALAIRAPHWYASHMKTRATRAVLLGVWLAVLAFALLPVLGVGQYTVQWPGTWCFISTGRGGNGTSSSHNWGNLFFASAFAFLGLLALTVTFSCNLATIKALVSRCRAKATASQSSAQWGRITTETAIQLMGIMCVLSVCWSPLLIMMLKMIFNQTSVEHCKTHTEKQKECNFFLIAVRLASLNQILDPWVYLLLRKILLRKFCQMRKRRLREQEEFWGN
Description: Radioligand binding, EP3 receptor. To be noted: competition vs [3H]PGE2 5 nM. On the procedure: as §5, §6
[^3H-] PGE2 (5 nM; specific activity 180 Ci mmol) was used as the radioligand for EP receptors. […] Non-specific binding determined with 10^−5M of unlabeled PGE2.

Experiment [6] has as its target T6, hEP3A/Gqi5 (Homo sapiens, UniProt P43115).
T6 construct: expressed in transfected cells
T6 sequence (P43115 1-390): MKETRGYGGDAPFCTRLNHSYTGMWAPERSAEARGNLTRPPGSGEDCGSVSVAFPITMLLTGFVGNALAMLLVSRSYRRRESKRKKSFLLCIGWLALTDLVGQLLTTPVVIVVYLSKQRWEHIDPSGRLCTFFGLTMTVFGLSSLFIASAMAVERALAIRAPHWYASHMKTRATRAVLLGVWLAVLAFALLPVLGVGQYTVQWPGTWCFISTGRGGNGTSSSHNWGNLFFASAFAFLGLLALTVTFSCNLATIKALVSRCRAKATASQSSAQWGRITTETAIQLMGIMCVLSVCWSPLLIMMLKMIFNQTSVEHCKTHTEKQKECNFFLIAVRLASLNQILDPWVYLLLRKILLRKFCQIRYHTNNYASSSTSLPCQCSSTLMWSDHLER
Description: FLIPR calcium signal, hEP3A/Gqi5. The experiment is classed as cell-based. To be noted: HEK-293(EBNA) cells, read-out: Functional EC50 (nM) HEP3A. The method, then: as §1, §2, §3, §4

Experiment [7] deals with T7, hEP2/Gqs5 (Homo sapiens, UniProt P43116).
T7 construct: expressed in transfected cells
T7 sequence (P43116 whole entry): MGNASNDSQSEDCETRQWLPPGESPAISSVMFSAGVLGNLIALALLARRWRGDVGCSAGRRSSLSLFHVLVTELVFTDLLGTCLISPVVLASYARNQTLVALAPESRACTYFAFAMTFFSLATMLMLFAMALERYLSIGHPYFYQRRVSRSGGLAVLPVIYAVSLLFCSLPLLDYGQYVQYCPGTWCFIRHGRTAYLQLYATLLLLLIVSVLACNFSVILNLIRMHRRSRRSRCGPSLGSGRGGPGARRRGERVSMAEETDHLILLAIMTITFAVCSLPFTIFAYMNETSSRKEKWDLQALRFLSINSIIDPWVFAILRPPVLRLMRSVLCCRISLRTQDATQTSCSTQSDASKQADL
Kind of experiment: FLIPR calcium signal, hEP2/Gqs5. It counts as cell-based. As to conditions: HEK-293(EBNA) cells, read-out: Functional EC50 (nM) HEP2. The method, then:
as §1, §2, §3
Compounds were tested in a high-throughput (HTS) or concentration-response (CoRe) format. […]

T1 sequence (P35408 whole entry): as the sequence (P35408 whole entry) above

As usually defined, the EC50 is the concentration that produces a half-maximal response. As for `COC(=O)CCC/C=C\C[C@H]1C(=O)C[C@@H](CO)[C@@H]1/C=C/C(O)CCc1sc2ccccc2c1Cl` (stereo partly shown) [drawing 31], in experiment [1], the EC50 was more than 10000 nM.

Regarding `COC(=O)CCC/C=C\C[C@H]1C(=O)CC[C@@H]1/C=C/C(O)CCc1sc2ccccc2c1Cl` (stereo partly shown) [drawing 38], the concentration giving a half-maximal response (EC50) in experiment [1] worked out at 515 nM.

As usually defined, the IC50 is the concentration that gives 50% inhibition. Read a high IC50 as weaker potency. In experiment [2], `COC(=O)CCC/C=C\C[C@H]1C(=O)C[C@@H](C)[C@@H]1/C=C/C(O)CCc1sc2ccccc2c1Cl` (stereo partly shown) returned an IC50 of more than 10000 nM. Also, the EC50 in experiment [1] was more than 10000 nM.

As to `COC(=O)CCC/C=C\C[C@H]1C(=O)C[C@@H](CO)[C@@H]1/C=C/C(O)Cc1cc2ccccc2s1` (stereo partly shown) [drawing 34], the EC50 in experiment [3], in experiment [4] and in experiment [1] was more than 10000 nM in each case.

Regarding `O=C(O)CCC/C=C\C[C@H]1C(=O)C[C@@H](CO)[C@@H]1/C=C/C(O)CCc1sc2ccccc2c1Cl` (stereo partly shown) [drawing 32], the EC50 in experiment [1] came out at 1240 nM.

Take `O=C(O)CCC/C=C\C[C@H]1C(=O)CC[C@@H]1/C=C/C(O)CCc1sc2ccccc2c1Cl` (stereo partly shown) [drawing 41]: the EC50 is more than 10000 nM in experiment [3], more than 10000 nM in experiment [6] and 25 nM in experiment [1]. The concentration for half-maximal inhibition (IC50) in experiment [5] was 3700 nM; in experiment [2], 110 nM.

Regarding `COC(=O)CCC/C=C\C[C@H]1C(=O)C[C@@H](CO)[C@@H]1/C=C/C(O)CCc1sc2ccccc2c1Cl` (stereo partly shown) [drawing 30], the EC50 in experiment [1] is more than 10000 nM.

Turning to `O=C(O)CCC/C=C\C[C@H]1C(=O)C[C@@H](CO)[C@@H]1/C=C/C(O)Cc1cc2ccccc2s1` (single isomer, unassigned) [drawing 37], the EC50 was 9 nM in experiment [4], 99 nM in experiment [6], more than 10000 nM in experiment [7] and 1770 nM in experiment [1].

As to `C[C@@H]1CC(=O)[C@H](C/C=C\CCCC(=O)O)[C@H]1/C=C/C(O)CCc1sc2ccccc2c1Cl` (stereo partly shown), the EC50 in experiment [4] is more than 10000 nM; in experiment [6] it was more than 10000 nM; in experiment [1] it was 153 nM. This compound also yielded an IC50 in experiment [2] of 1800 nM.
